“Also recorded” adds a separate entry of the source. Structures can show the parent of a compound that is named as a salt. Where two headings read alike, the source gives them in different places. Values belong to the molecule of their own block, whether it stands above or below them.
What was measured:
SNAT2 [1] = target: T1, SNAT2 (Homo sapiens, UniProt Q96QD8); assay: FLIPR membrane potential (FMP) assay in PC-3 cells; type: cell-based; settings: for influence on fluorescence intensity in the FMP assay: 20 mM; for influence on fluorescence intensity in the FMP assay / response in the FMP assay (stimulation of SNAT2 activity): result in words
T1 construct: hyperosmotically treated PC-3 cells, known to upregulate SNAT2; endogenous in cells; host or cells: PC-3 prostate cells exposed to hyperosmotic medium for 24 h
T1 sequence (Q96QD8 1-506): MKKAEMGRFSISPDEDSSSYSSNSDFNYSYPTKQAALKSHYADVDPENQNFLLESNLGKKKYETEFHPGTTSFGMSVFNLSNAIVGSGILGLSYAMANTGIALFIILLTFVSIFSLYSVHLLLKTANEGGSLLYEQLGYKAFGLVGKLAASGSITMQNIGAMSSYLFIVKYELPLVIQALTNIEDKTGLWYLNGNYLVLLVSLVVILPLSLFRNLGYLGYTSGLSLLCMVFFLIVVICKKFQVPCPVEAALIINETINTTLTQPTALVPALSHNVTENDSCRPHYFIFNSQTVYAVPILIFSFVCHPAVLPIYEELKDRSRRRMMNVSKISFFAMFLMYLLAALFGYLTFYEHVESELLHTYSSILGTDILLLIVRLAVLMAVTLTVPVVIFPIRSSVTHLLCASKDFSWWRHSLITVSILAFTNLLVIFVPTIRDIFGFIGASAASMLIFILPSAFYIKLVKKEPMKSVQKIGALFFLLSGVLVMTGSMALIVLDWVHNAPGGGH
Method: PC-3 cells exposed to hyperosmotic media for 24 h were used to identify SNAT2 substrates in the FMP assay. The media was aspirated, and the cells were preincubated in HBSS + for 10 min at 37 °C and 220 rpm. Then the buffer was aspirated, and cells were then incubated in 50 µL HBSS + containing 0.55 mg ⋅ mL^− 1 (1x) FMP probe (Blue component A from Molecular Devices, San Jose, CA, USA) for 30 min at 37 °C and 220 rpm. […] First, the baseline was measured for 30 s by measuring each well every 3 s. The plate was then removed from the reader and 50 µL of substrate solutions containing 0.55 mg ⋅ mL^− 1 FMP probe was added. These solutions were prepared by mixing equal parts solution containing 2x FMP probe and solutions containing 4x the final concentration of substrate. […] Following this, the baseline of the next column was measured and followed the same procedure as just described.
For the FMP data, the baseline was defined as the mean fluorescence of the first data point before substrate addition. The baseline of each well was then subtracted from the data point to get the ΔF. Plotting ΔF as a function of time and calculating the area under the curve (AUC) after substrate addition was used as a measure of SNAT2 activity.

SNAT2 [2] = target: T1, SNAT2; assay: Inhibition of SNAT2-mediated 3H-glycine uptake in hyperosmotically treated PC-3 cells; type: cell-based; settings: for inhibition of SNAT2-mediated 3H-glycine uptake / affinity for SNAT2: pH 7.4, result in words
Method: Where Y is the % uptake, X is the concentration of the inhibitor, Top and Bottom are the top and bottom plateau respectively, and IC50 is the half maximal inhibitory concentration. These studies were performed in at least 3 independent cell passages (n = 3) and a curve was defined for each independent passage. However, for each compound, the top and bottom were constrained to be the same amongst the different cell passages.

SNAT2 [3] = target: T1, SNAT2; assay: Intracellular amino acids and analogs quantified by OPA derivatization and HPLC-Fl after uptake in PC-3 cells; type: cell-based; settings: 30 min uptake; for fold change of intracellular accumulation in absence vs presence of 10 mM L-glutamine: pH 7.4
Method: Derivatization of AAs and analogs using o-phthalaldehyde (OPA) and 2-mercaptoethanol (2-ME) to make fluorescent derivatives was used to measure the intracellular amounts of AAs and analogs following uptake in hyperosmotically treated PC-3 cells. Before starting the experiment, the medium was aspirated, and the cells were preincubated in HBSS + for 15 min at 37 °C and 220 rpm. The cells were then incubated with 500 µL HBSS+ (background) or HBSS + containing AAs or analogs at given concentrations for 30 min at 37 °C and 220 rpm. After aspirating the donor solutions, the cells were washed thrice with 500 µL of ice-cold PBS while keeping the cells on ice. 200 µL of ice-cold 1x-trypsin was added to each well and allowed to distribute for 20–30 min while keeping the cells on ice. The plate was then transferred to an incubating microplate shaker at 37 °C and 220 rpm for about 8 min or until the cells had detached. 300 µL of ice-cold PBS was added to each well to resuspend the cells and transfer them to centrifuge tubes. The cells were centrifuged at 1000 G for 5 min (4 °C), the supernatant was removed, the cells were resuspended in 300 µL ice-cold PBS, and then centrifuged again at 1000 G for 5 min (4 °C). After removing the supernatant, the cell pellet was lysed by adding 100 µL of 80% methanol (20% ultrapure water) and placing the tubes in an ultrasonic bath for 10 min. The tubes were then centrifuged at 15,000 G for 15 min (4 °C) and the resulting supernatant was used for analysis.
The OPA reagent was prepared by spiking with 2 µL 2-ME per mL of OPA regent and was considered stable for use within one day. 10 µL of the cell samples or standards containing a mixture of the AAs and analogs of interest were placed in HPLC vials with 100 µL inserts. […] The autosampler kept the samples at 10 °C and the pretreatment function was used to automatically mix the samples with 10 µL of the OPA reagent and wait 4 min before loading 2 µL onto a YMC-Triart C18 column (75 × 3.0 mm, 1.9 μm, Mikrolab Aarhus, Viby J, Denmark). […] The fluorescence detector was set to excite at 350 nm and detect at 450 nm.
The resulting chromatograms were integrated and the area under the curve (AUC) of the standard samples was used to generate standard curves to determine the concentration of AAs and analogs in the cell samples. […] Amino acid levels detected in the background cell samples were subtracted from the other cell samples.

SNAT2 [4] = target: T1, SNAT2; design: method as in Jakobsen et al. [2023]; Nielsen et al. [2022]; settings: hyperosmotically treated PC-3 cells; ref Jakobsen et al. [2023]; Nielsen et al. [2022]; cited from earlier work
SNAT2 [5] = target: T1, SNAT2; assay: FLIPR membrane potential (FMP) assay in PC-3 cells; type: cell-based; settings: isoosmotically treated PC-3 cells
[6] = 20 mM compound, hyperosmotically treated PC-3 cells
[7] = hyperosmotically treated PC-3 cells
[8] = hyperosmotically treated PC-3 cells, 5 min uptake of 11.1 nM 3H-glycine, pH 7.4, read-out: IC50
[9] = 3 mM compound, hyperosmotically treated PC-3 cells
[10] = 10 mM compound, hyperosmotically treated PC-3 cells

SMILES: N=C(N)NCCC[C@H](N)C(=O)O [L-Arginine, L-arginine hydrochloride]
- AUC of fluorescence response-time curve (SNAT2 [1]; [6]): -0.97 ± 0.3 10^5 RFU ∙ s
- AUC, % of 10 mM L-alanine (SNAT2 [1]; [6]): -4.4 ± 1.2%
- influence on fluorescence intensity in the FMP assay (SNAT2 [1]): little influence on the fluorescence intensity

SMILES: NCCS(=O)(=O)O [Taurine, taurine]
- AUC of fluorescence response-time curve (SNAT2 [1]; [6]): -1.0 ± 0.2 10^5 RFU ∙ s
- AUC, % of 10 mM L-alanine (SNAT2 [1]; [6]): -4.7 ± 0.7%
- influence on fluorescence intensity in the FMP assay (SNAT2 [1]): did not lead to an increase in fluorescence; also recorded: little influence on the fluorescence intensity

SMILES: N[C@@H](CCC(=O)O)C(=O)O [L-glutamate, L-glutamic acid]
- inhibition of SNAT2-mediated 3H-glycine uptake / affinity for SNAT2 (SNAT2 [2]; [7]): limited affinity

SMILES: O=C(O)[C@@H]1C[C@@H](O)CN1 [trans-4-Hydroxy-L-proline, trans-4-hydroxy-L-proline]
- IC50 (SNAT2 [2]): 3500 µM

SMILES: N[C@H](C(=O)O)c1ccc(O)cc1 [oxfenicine, Oxfenicine]
- inhibition of SNAT2-mediated 3H-glycine uptake / affinity for SNAT2 (SNAT2 [2]; [7]): relatively poor at inhibiting SNAT2

SMILES: N[C@@H](CC1CCCCC1)C(=O)O [3-Cyclohexyl-L-alanine, 3-cyclohexyl-L-alanine]
- IC50 (SNAT2 [2]; [8]): 630 µM
- AUC of fluorescence response-time curve (SNAT2 [1]; [9]): 21.9 ± 0.5 10^5 RFU ∙ s
- AUC, % of 10 mM L-alanine (SNAT2 [1]; [9]): 99.2 ± 2.4%
- response in the FMP assay (stimulation of SNAT2 activity) (SNAT2 [1]; [7]): substrates of SNAT2

SMILES: O=C(O)[C@@H]1CCCCN1 [L-Pipecolinic acid, L-pipecolinic acid]
- IC50 (SNAT2 [2]; [8]): 2900 µM
- AUC of fluorescence response-time curve (SNAT2 [1]; [10]): 18.1 ± 0.2 10^5 RFU ∙ s
- AUC, % of 10 mM L-alanine (SNAT2 [1]; [10]): 81.9 ± 0.8%
- response in the FMP assay (stimulation of SNAT2 activity) (SNAT2 [1]; [7]): substrates of SNAT2

SMILES: NCC(=O)O [Glycine, glycine]
- IC50 (SNAT2 [2]; [8]): 520 µM
- pIC50 ± SEM (SNAT2 [2]; hyperosmotically treated PC-3 cells, -log transformed IC50): [3.3 ± 0.11]

SMILES: CC(=O)C(C)N.Cl (centres unmarked) [3-aminobutan-2-one, 3-Aminobutan-2-one hydrochloride]
- inhibition of SNAT2-mediated 3H-glycine uptake / affinity for SNAT2 (SNAT2 [2]; [7]): retains some affinity for SNAT2

SMILES: O=C(O)c1ccccn1 [picolinic acid]
- Hill slope of concentration-response curve (SNAT2 [2]; [7]): -4.2
- IC50 (SNAT2 [2]; [8]): 5600 µM

SMILES: O=C(O)[C@@H]1CCN1 [L-Azetidine-2-carboxylic acid, L-azetidine-2-carboxylic acid]
- IC50 (SNAT2 [2]): 660 µM

SMILES: N[C@@H](Cc1ccccc1)C(=O)O [L-phenylalanine]
- inhibition of SNAT2-mediated 3H-glycine uptake / affinity for SNAT2 (SNAT2 [2]; [7]): relatively poor at inhibiting SNAT2

SMILES: O=C(O)[C@@H]1CCCN1 [L-Proline, L-proline]
- IC50 (SNAT2 [2]; [8]): 640 µM

More lines, main results first:

- inhibition of SNAT2-mediated 3H-glycine uptake / affinity for SNAT2 (SNAT2 [2]; [7]): potency is lost
SMILES: Cl.NCC(N)=O [glycinamide, glycinamide hydrochloride]

- IC50 (SNAT2 [2]; [8]): 680 µM
- AUC of fluorescence response-time curve (SNAT2 [1]; [9]): 1.7 ± 0.4 10^5 RFU ∙ s
- AUC, % of 10 mM L-alanine (SNAT2 [1]; [9]): 7.8 ± 1.9%
- fold change of intracellular accumulation in absence vs presence of 10 mM L-glutamine (SNAT2 [3]; 0.7 mM compound): 5.4 fold
- level of intracellular accumulation (SNAT2 [3]; result in words): relatively low accumulation
SMILES: N[C@@H](CCC(=O)OCc1ccccc1)C(=O)O [γ-Benzyl L-glutamate, γ-benzyl L-glutamate]
- response in the FMP assay (stimulation of SNAT2 activity) (SNAT2 [1]; [7]): little or no stimulation of SNAT2 activity

- IC50 (SNAT2 [2]; [8]): 710 µM
SMILES: CNCC(=O)O [Sarcosine, sarcosine]

- inhibition of SNAT2-mediated 3H-glycine uptake / affinity for SNAT2 (SNAT2 [2]; [7]): limited affinity
SMILES: NCCCC[C@H](N)C(=O)O [L-lysine, L-lysine monohydrochloride]

- IC50 (SNAT2 [2]; [8]): 6600 µM
SMILES: C[N+](C)(C)CC(=O)O [Betaine, betaine]
- reduction of 3H-glycine uptake (SNAT2 [4]): ~86%

- IC50 (SNAT2 [2]; [8]): 23000 µM
- IC50 (SNAT2 [2]; hyperosmotically treated PC-3 cells, -log transformed IC50, read-out: pIC50 ± SEM (converted)): 25100 µM
SMILES: CN(C)CC(=O)O [N,N-Dimethylglycine, N,N-dimethylglycine hydrochloride]

- IC50 (SNAT2 [2]; [8]): 420 µM
- AUC of fluorescence response-time curve (SNAT2 [1]; [10]): 21.1 ± 0.6 10^5 RFU ∙ s
- AUC, % of 10 mM L-alanine (SNAT2 [1]; [10]): 95.4 ± 2.5%
- response in the FMP assay (stimulation of SNAT2 activity) (SNAT2 [1]; [7]): substrates of SNAT2
SMILES: CCOC(=O)[C@H](C)N [L-Alanine ethyl ester, L-alanine ethyl ester hydrochloride]

- IC50 (SNAT2 [2]; [8]): 460 µM
- AUC of fluorescence response-time curve (SNAT2 [1]; [10]): 24 ± 0.9 10^5 RFU ∙ s
- AUC, % of 10 mM L-alanine (SNAT2 [1]; [10]): 108.6 ± 4.2%
- fold change of intracellular accumulation in absence vs presence of 10 mM L-glutamine (SNAT2 [3]; 0.45 mM compound): 4.1 fold
SMILES: N[C@@H](CO)C(=O)O [L-Serine, L-serine]

- IC50 (SNAT2 [2]; [8]): 4100 µM
SMILES: C[C@H](N)C(=O)OC(C)(C)C [L-Alanine tert-butyl ester, L-alanine tert-butyl ester hydrochloride]

- IC50 (SNAT2 [2]; [8]): 330 µM
- AUC of fluorescence response-time curve (SNAT2 [1]; [10]): 23.5 ± 0.8 10^5 RFU ∙ s
- AUC, % of 10 mM L-alanine (SNAT2 [1]; [10]): 106.6 ± 3.8%
- response in the FMP assay (stimulation of SNAT2 activity) (SNAT2 [1]; [7]): substrates of SNAT2
SMILES: COC(=O)[C@H](C)N [L-Alanine methyl ester, L-alanine methyl ester hydrochloride]

- IC50 (SNAT2 [2]; [8]): 250 µM
- AUC of fluorescence response-time curve (SNAT2 [1]; [10]): 25.9 ± 1.4 10^5 RFU ∙ s
- AUC, % of 10 mM L-alanine (SNAT2 [1]; [10]): 117.5 ± 6.2%
- response in the FMP assay (stimulation of SNAT2 activity) (SNAT2 [1]; [7]): substrates of SNAT2
SMILES: N[C@@H](CCO)C(=O)O [L-Homoserine, L-homoserine]

- IC50 (SNAT2 [2]; [8]): 170 µM
- AUC of fluorescence response-time curve (SNAT2 [1]; [10]): 22.1 ± 0.9 10^5 RFU ∙ s
- AUC, % of 10 mM L-alanine (SNAT2 [1]; [10]): 100 ± 3.9%
- EC50 (SNAT2 [1]; [7]): 245 µM
- EC50 (SNAT2 [5]): 138 µM
SMILES: C[C@H](N)C(=O)O [L-Alanine, L-alanine]
- inhibition of 3H-glycine uptake at different pH levels (SNAT2 [2]; pH 6.8, 7.4 and 8.0, 0.4 mM L-alanine benzyl ester or 0.2 mM L-alanine, two-way ANOVA): no significant differences in inhibition at the different pH levels

- AUC of fluorescence response-time curve (SNAT2 [1]; [10]): 24.4 ± 1.3 10^5 RFU ∙ s
- AUC, % of 10 mM L-alanine (SNAT2 [1]; [10]): 110.4 ± 6.1%
- response in the FMP assay (stimulation of SNAT2 activity) (SNAT2 [1]; [7]): substrates of SNAT2
SMILES: CCCC[C@H](N)C(=O)O [L-Norleucine, L-norleucine]

- inhibition of SNAT2-mediated 3H-glycine uptake / affinity for SNAT2 (SNAT2 [2]; [7]): potency is lost
SMILES: C[C@H](N)CO [L-alaninol]
